Consider four compounds from patent publication US20190281828A1 (priority 2016, published 2019).

One data set concerns Pyricularia oryzae. In kind it is cell-based. To be noted: inhibition of spore germination and mycelium growth, liquid culture, 4 to 7 days incubation.
For another data set, the system named is Botrytis cinerea. The data set is described as follows: In vitro test for ED50 values, liquid culture, Botrytis cinerea. The format is cell-based. As to conditions: inhibition of spore germination and mycelium growth, 4 to 7 days incubation. The source says: (§1) Example E: In Vitro Test for the Calculation of ED50-Values; Comparison of Compounds According to the Invention Vs. Compounds Encompassed by WO 2010/146116 A1
(§2) • Solvent: DMSO • Culture medium: 14.6 g anhydrous D-glucose (VWR), 7.1 g Mycological Peptone (Oxoid), 1.4 g granulated Yeast Extract (Merck) per 1 liter water • Inoculum: spore suspension
(§3) Fungicides were solubilized in DMSO and the resulting solutions used to prepare test solutions of different fungicide concentrations in the required range. The final concentration of DMSO used in the assay was <1% by volume.
(§4) A spore suspension was prepared and diluted to the desired spore density.
(§5) Fungicides were evaluated for their ability to inhibit spore germination and mycelium growth in liquid culture assay. The compounds were added in the desired concentration to the culture medium with spores. After 4 to 7 days incubation, fungi-toxicity of compounds was determined by spectrometric measurement of mycelium growth. Inhibition of fungal growth was determined by comparing the absorbance values in wells containing the fungicides with the absorbance in control wells without fungicides.

For data set [1], the system named is Septoria tritici. The data set is described as follows: In vitro test for ED50 values, liquid culture, Septoria tritici. The format is cell-based. As to conditions: inhibition of spore germination and mycelium growth, 4 to 7 days incubation.
From the text: as §1, §2, §3, §4, §5

The subject of another data set is Alternaria alternata. Description: In vitro test for ED50 values, liquid culture, Alternaria alternata. As to conditions: inhibition of spore germination and mycelium growth, 4 to 7 days incubation. The format is cell-based.
From the text: as §1, §2, §3, §4, §5

The next data set has as its system Puccinia recondita. As to conditions: 500 ppm of active ingredient; preventive spray on young wheat plants; evaluated 11 days after inoculation.
For data set [2], the system named is Septoria tritici. To be noted: 500 ppm of active ingredient; preventive spray on young wheat plants; evaluated 24 days after inoculation.
Method: (§6) • Solvent: 5% by volume of Dimethyl sulfoxide • 10% by volume of Acetone • Emulsifier: 1 μl of Tween® 80 per mg of active ingredient
(§7) The active ingredients are made soluble and homogenized in a mixture of Dimethyl sulfoxide/Acetone/Tween® 80 and then diluted in water to the desired concentration.
(§8) Control plants are treated only with an aqueous solution of Acetone/Dimethyl sulfoxide/Tween® 80.
After 24 hours, the plants are contaminated by spraying the leaves with an aqueous suspension of Septoria tritici spores. The contaminated wheat plants are incubated for 72 hours at 18° C. and at 100% relative humidity and then for 21 days at 20° C. and at 90% relative humidity.
The test is evaluated 24 days after the inoculation.
The next data set concerns Sphaerotheca fuliginea. As to conditions: 500 ppm of active ingredient; preventive spray on young gherkin plants; evaluated 15 days after inoculation.
In another data set the test system is Uromyces appendiculatus. As to conditions: 500 ppm of active ingredient; preventive spray on young bean plants; evaluated 11 days after inoculation.
The next data set can be described thus: physchem. To be noted: reversed phase HPLC column.

The structures appear in SMILES notation.

Method for Puccinia recondita: Example A: In Vivo Preventive Test on Puccinia recondita (Brown Rust on Wheat)
as §6, §7, §8
After 24 hours, the plants are contaminated by spraying the leaves with an aqueous suspension of Puccinia recondita spores. The contaminated wheat plants are incubated for 24 hours at 20° C. and at 100% relative humidity and then for 10 days at 20° C. and at 70-80% relative humidity.
(§9) The test is evaluated 11 days after the inoculation.
Method for Sphaerotheca fuliginea: Example C: In Vivo Preventive Test on Sphaerotheca fuliginea (Powdery Mildew on Cucurbits)
as §6, §7, §8
After 24 hours, the plants are contaminated by spraying the leaves with an aqueous suspension of Sphaerotheca fuliginea spores. The contaminated gherkin plants are incubated for 72 hours at 18° C. and at 100% relative humidity and then for 12 days at 20° C. and at 70-80% relative humidity.
The test is evaluated 15 days after the inoculation.
Method for Uromyces appendiculatus: as §6, §7, §8
After 24 hours, the plants are contaminated by spraying the leaves with an aqueous suspension of Uromyces appendiculatus spores. The contaminated bean plants are incubated for 24 hours at 20° C. and at 100% relative humidity and then for 10 days at 20° C. and at 70-80% relative humidity.
as §9
From the text for physchem: Calibration was done with straight-chain alkan2-ones (with 3 to 16 carbon atoms) with known Log P values (measurement of Log P values using retention times with linear interpolation between successive alkanones).

Consider `CC1COC(Cn2cncn2)(c2cnc(Oc3ccc(Cl)cc3)cc2Cl)O1` (stereo not drawn) [reference compound], for which, in the data set with Pyricularia oryzae, the “Pyricularia oryzae ED50 value in ppm” value came to 9.5 ppm. Besides, in the data set on Botrytis cinerea, the “Botrytis cinerea ED50 value in ppm” value is on record as 8.9 ppm. Moreover, the “Septoria tritici ED50 value in ppm” value in the data set on Septoria tritici [1] is on record as 0.013 ppm.
On to `Clc1ccc(Oc2cc(Cl)c(C3(Cn4cncn4)OCCO3)cn2)cc1` [reference compound], for which the “Alternaria alternata ED50 value in ppm” value with Alternaria alternata is given as 0.5 ppm. For the same compound, the “Pyricularia oryzae ED50 value in ppm” value in the data set on Pyricularia oryzae turned out to be 1.3 ppm.
On to `Clc1ccc(Oc2ccc(C3(Cn4cncn4)OCCO3)c(Cl)n2)cc1` [I.01, 2-chloro-6-(4-chlorophenoxy)-3-[2-(1,2,4-triazol-1-ylmethyl)-1,3-dioxolan-2-yl]pyridine], for which, in the data set with Alternaria alternata, the “Alternaria alternata ED50 value in ppm” value is listed as 0.12 ppm. The “Pyricularia oryzae ED50 value in ppm” value in the data set on Pyricularia oryzae was found to be 0.56 ppm. In addition, the efficacy result with Puccinia recondita, in the data set on Septoria tritici [2], in the data set on Sphaerotheca fuliginea and in the data set with Uromyces appendiculatus was “at least 70%” throughout. This compound showed a chromatographic logP in the data set “physchem” of 2.86.
In the case of `CC1COC(Cn2cncn2)(c2ccc(Oc3ccc(Cl)cc3)nc2Cl)O1` (stereo not drawn) [I.02], the “Pyricularia oryzae ED50 value in ppm” value with Pyricularia oryzae amounted to 1.2 ppm. In addition, the “Botrytis cinerea ED50 value in ppm” value in the data set with Botrytis cinerea was 2.7 ppm. The “Septoria tritici ED50 value in ppm” value with Septoria tritici [1] worked out at 0.008 ppm.
